Test results as given in US5846755A (priority 1995, dated 1998).
Read-outs that look alike come from different tables or passages of the source.

How the values were obtained:
[1] = Resistance to proteolytic activity in stomach juices (rat stomach homogenate, HPLC); settings: 37° C.
Method: To check if the compounds of the present invention are resistant to proteolytic activity in stomach juices and, therefore, could be administered orally, the stomachs of fasting rats were homogenized in physiological solutions (1:1). 300 microliters of solutions of the compounds (1 mg/ml of saline) were incubated with 0.5 ml of stomach homogenates (37° C.).

[2] = target: neutrophil collagenase (recombinant human) (Homo sapiens, UniProt P22894); assay: In vitro assays on recombinant human collagenase; assay type: biochemical; settings: Concentration 2.2 × 10^-5 M
Method: Using the same enzymatic determination already described (fluorimetric detection of cleavage of a substrate peptide containing a fluorescent moiety), some of the compounds were tested on neutrophil collagenase, an enzyme described as participating in any kind of inflammatory reaction in mammalian bodies. In this case, the purified enxzyme was also obtained by recombinant means.

[3] = target: T1, recombinant human gelatinase A (Homo sapiens, UniProt P08253); assay: In vitro effects on recombinant human gelatinase A; assay type: biochemical
T1 construct: purchased Strangeways Laboratories, Cambridge, UK
T1 sequence (P08253 110-660): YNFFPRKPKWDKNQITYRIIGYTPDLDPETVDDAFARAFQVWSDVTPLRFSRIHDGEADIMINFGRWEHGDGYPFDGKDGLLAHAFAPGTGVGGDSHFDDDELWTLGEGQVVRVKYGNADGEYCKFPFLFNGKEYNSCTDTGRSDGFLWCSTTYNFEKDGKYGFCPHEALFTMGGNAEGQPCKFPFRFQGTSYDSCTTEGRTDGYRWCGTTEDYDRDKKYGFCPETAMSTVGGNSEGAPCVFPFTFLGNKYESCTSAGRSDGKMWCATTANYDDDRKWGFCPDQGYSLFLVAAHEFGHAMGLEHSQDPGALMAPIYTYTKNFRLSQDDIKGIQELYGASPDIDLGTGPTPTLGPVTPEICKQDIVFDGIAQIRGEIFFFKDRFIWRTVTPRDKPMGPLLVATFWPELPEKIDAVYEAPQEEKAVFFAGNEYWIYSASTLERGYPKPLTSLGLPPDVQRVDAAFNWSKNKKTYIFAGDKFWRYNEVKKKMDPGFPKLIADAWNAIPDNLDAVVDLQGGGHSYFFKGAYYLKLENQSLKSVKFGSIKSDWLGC
Description: Assays on human gelatinase A, an enzyme released in high concentration by any kind of tumor cells during the process of metastatization, and recognized also as a product of stimulated cells in many pathological processes, have been performed using the protein obtained by recombinant biotechnology (Strangeways Laboratories, Cambridge, UK). The enzymatic activity has been followed over time, measuring the amount of fluorescent substrate cleaved by the enzyme, in the presence or absence of synthetic compounds (Perkin Elmer L50 B fluorimeter).

[4] = target: enzyme purified from the venom of Crotalus Adamanteus (hemorrhagin) (Crotalus adamanteus, UniProt P34179); assay type: biochemical
[5] = system: human melanoma cell line VMM-5; assay: Matrigel-based invasion assay with human melanoma cells; assay type: cell-based; settings: Concentration 500 micro M, VMM-5 cells, 20 hours
Description: In order to obtain information about the possible interference of the synthesized compounds on the ability of tumor cells to migrate through the body (metastatization), the human melanoma cell line VMM-5 was used in the matrigel-based invasion assay, in which basal membrane matrigel (Becton Dickinson) and tissue culture inserts with 8 microns pore size in 24 well tissue culture plates were used as Boyden chambers. The chambers were coated with diluted matrigel and allowed to dry overnight; they were then reconstituted with serum free medium, and melanoma cells (4,000,000/ml) were dispensed in each insert. In the lower chambers, a chemoattractant was included. The chambers were finally placed in a humidified CO2 incubator at 37° C., and incubated for 20 hours. The inserts were dried and the cells on the upper surface removed. The polycarbonate filters were fixed with methanol, stained with hematoxylin and eosin, and counted with a microscope. Inhibition of migration due to compounds has been expressed as a percentage of the total number of migrated cells in the control chambers containing only the buffer in which the compounds were dissolved.

[6] = target: T2, recombinant human gelatinase B (Homo sapiens, UniProt P14780); assay: In vitro effects on recombinant human gelatinase B; assay type: biochemical; settings: Concentration 1.0 × 10^-5 M
T2 construct: purchased Stangeways Laboratories, Cambridge, UK (so in the source)
Method: Assays on human gelatinase B, another enzyme released by tumor cells, were performed using also, in this case, the protein obtained by recombinant biotechnology Stangeways Laboratories, Cambridge, UK). As usual, the enzymatic activity was followed over time, measuring the amount of fluorescent substrate cleaved by the enzyme, in the presence or absence of synthetic compounds (Perkin Elmer L50 B fluorimeter).

enzyme purified from the venom of Crotalus Adamanteus (hemorrhagin), sequence (P34179 whole entry, looked up): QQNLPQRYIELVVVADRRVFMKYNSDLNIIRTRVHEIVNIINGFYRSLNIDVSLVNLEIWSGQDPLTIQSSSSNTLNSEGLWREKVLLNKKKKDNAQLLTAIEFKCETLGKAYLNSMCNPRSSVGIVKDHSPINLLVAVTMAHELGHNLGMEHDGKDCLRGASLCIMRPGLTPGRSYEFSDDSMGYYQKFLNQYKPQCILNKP
T2 sequence (P14780 94-707): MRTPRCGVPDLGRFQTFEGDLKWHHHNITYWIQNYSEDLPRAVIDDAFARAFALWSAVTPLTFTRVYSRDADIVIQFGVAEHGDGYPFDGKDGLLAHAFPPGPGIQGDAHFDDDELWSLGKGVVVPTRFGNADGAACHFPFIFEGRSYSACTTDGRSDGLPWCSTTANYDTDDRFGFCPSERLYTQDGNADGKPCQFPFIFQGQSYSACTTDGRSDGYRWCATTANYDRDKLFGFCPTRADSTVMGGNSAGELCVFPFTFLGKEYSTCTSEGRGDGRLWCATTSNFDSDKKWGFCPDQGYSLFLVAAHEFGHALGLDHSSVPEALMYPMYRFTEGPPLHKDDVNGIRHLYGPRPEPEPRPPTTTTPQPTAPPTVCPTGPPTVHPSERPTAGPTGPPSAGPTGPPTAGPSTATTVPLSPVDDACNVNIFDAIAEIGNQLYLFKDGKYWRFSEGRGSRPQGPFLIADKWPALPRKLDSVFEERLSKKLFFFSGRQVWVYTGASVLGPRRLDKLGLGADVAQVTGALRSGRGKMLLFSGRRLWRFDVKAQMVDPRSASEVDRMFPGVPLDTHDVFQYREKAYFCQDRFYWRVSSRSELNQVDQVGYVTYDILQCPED
neutrophil collagenase (recombinant human), sequence (P22894 101-467): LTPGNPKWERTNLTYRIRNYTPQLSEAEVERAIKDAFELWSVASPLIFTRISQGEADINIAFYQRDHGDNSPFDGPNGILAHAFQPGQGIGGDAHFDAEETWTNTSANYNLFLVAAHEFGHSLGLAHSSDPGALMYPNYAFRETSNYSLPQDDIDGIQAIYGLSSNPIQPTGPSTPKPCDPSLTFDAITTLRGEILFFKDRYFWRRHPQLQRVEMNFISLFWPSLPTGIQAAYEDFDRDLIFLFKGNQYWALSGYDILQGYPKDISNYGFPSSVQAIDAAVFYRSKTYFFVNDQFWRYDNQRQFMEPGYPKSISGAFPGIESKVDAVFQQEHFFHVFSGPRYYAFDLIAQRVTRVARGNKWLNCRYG

| Molecule | IC50 ([4]; read-out: IC50) | also measured |
| --- | --- | --- |
| 2-FUR--(L)--Phe--(S)--Cyt--OH [Compound 11] | 53 nM | Residue after 60 Minutes [1]: 100%; Residue after 120 Minutes [1]: > 95%; % Inhibition [2]: 27%; % Inhibition ([3]; Concentration 8.7 × 10^-7 M): 40% |
| COc1ccc2c(c1)C(CC(=O)NC(CC(C)C)C(=O)N1Cc3[nH]c4ccccc4c3CC1C(=O)O)CC2=O (mixture of isomers) [Compound 23, 5-MIA--(L)--Leu--(S)--Cyt--OH] | 75 nM | % Inhibition ([3]; Concentration 8.0 × 10^-7 M): 40% |
| COc1ccc2[nH]c(C(=O)N[C@@H](CC3CCCCC3)C(=O)N3Cc4[nH]c5ccccc5c4C[C@H]3C(=O)O)cc2c1 [Compound 1, 5--MIC--Cha--(S)--Cyt--OH] |  | inhibition at 0.7 µM ([3]; Concentration 7.0 × 10^-7 M): 25%; IC50 [4]: 29 nM |
| CC(C)C[C@H](NC(=O)CSc1ncccn1)C(=O)N1Cc2[nH]c3ccccc3c2C[C@H]1C(=O)O [Compound 2, 2-PMTA--(L)--Leu--(S)--Cyt--OH] | 230 nM |  |
| CC(C)C[C@H](NC(=O)CSc1ccncc1)C(=O)N1Cc2[nH]c3ccccc3c2C[C@H]1C(=O)O [Compound 3, 4-PTA--(L)--Leu--(S)--Cyt--OH] | 360 nM | % Inhibition of Invasion [5]: 69%; Residue after 60 Minutes [1]: 100%; Residue after 120 Minutes [1]: > 95% |
| CC(C)C[C@H](NC(=O)c1nccnc1N)C(=O)N1Cc2[nH]c3ccccc3c2C[C@H]1C(=O)O [Compound 4, 3-APZC--(L)--Leu--(S)--Cyt--OH] | 57 nM |  |
| COc1cccc2cc(C(=O)N[C@@H](CC(C)C)C(=O)N3Cc4[nH]c5ccccc5c4C[C@H]3C(=O)O)oc12 [Compound 5, 7-MBF--(L)--Leu--(S)--Cyt--OH] | 94 nM |  |
| COc1cc(C(=O)N[C@@H](CC(C)C)C(=O)N2Cc3[nH]c4ccccc4c3C[C@H]2C(=O)O)nc2ccccc12 [Compound 6, 4-MQC--(L)--Leu--(S)--Cyt--OH] | 50 nM |  |
| CC(C)C[C@H](NC(=O)c1cc2cc(O)ccc2[nH]1)C(=O)N1Cc2[nH]c3ccccc3c2C[C@H]1C(=O)O [Compound 7, 5-HIC--(L)--Leu--(S)--Cyt--OH] | 23 nM |  |
| COc1ccc2[nH]c(C(=O)N[C@@H](Cc3ccccc3)C(=O)N3Cc4[nH]c5ccccc5c4C[C@H]3C(=O)O)cc2c1 [Compound 8, 5-MIC--(L)--Phe--(S)--Cyt--OH] | 100 nM |  |
| CC(C)C[C@H](NC(=O)[C@@H](N)CCO)C(=O)N1Cc2[nH]c3ccccc3c2C[C@H]1C(=O)O [Compound 12, (L)--HomoSer--(L)--Leu--(S)--Cyt--OH] | 5000 nM |  |
| CC(C)C[C@H](NC(=O)c1ccoc1)C(=O)N1Cc2[nH]c3ccccc3c2C[C@H]1C(=O)O [Compound 13, 3-Furoyl--(L)--Leu--(S)--Cyt--OH] | 400 nM | % Inhibition ([3]; Concentration 9.4 × 10^-7 M): 41% |
| COc1ccc2[nH]c(C(=O)N[C@@H](Cc3c[nH]c4ccccc34)C(=O)N3Cc4[nH]c5ccccc5c4C[C@H]3C(=O)O)cc2c1 [Compound 14, 5-MIC--(L)--Trp--(S)--Cyt--OH] | 47 nM | % Inhibition ([3]; Concentration 6.0 × 10^-7 M): 37% |
| CC(C)C[C@H](NC(=O)c1ccc2ccccc2n1)C(=O)N1Cc2[nH]c3ccccc3c2C[C@H]1C(=O)O [Compound 16, 2-QIC--(L)--Leu--(S)--Cyt--OH] | 28 nM | % Inhibition ([3]; Concentration 8.0 × 10^-7 M): 23%; % Inhibition [6]: 51% |
| COc1ccc2[nH]c(C(=O)N[C@@H](CC(C)C)C(=O)N3Cc4[nH]c5ccccc5c4C[C@H]3C(=O)O)cc2c1 [Compound 17, 5-MIC--(L)--Leu--(S)--Cyt--OH] |  | IC50 [4]: 23 nM |
| COc1ccccc1CC(=O)N[C@@H](CC(C)C)C(=O)N1Cc2[nH]c3ccccc3c2C[C@H]1C(=O)O [Compound 19, 2-MPA--(L)--Leu--(S)--Cyt--OH] | 260 nM |  |
| CCOc1ccccc1C(=O)N[C@@H](CC(C)C)C(=O)N1Cc2[nH]c3ccccc3c2C[C@H]1C(=O)O [Compound 20, 2-EBZ--(L)--Leu--(S)--Cyt--OH] | 130 nM |  |
